In ChEMBL document CHEMBL5370548, “Discovery, optimization and biological evaluation of novel HBsAg production inhibitors” (Eur J Med Chem, 2023):
Active and inactive are the calls of the source. The calls are words filed in the database; no cut-off is given here.

What was measured:
Hepatitis B virus [1] = experiment: Antiviral activity against HBV infected in human HepG2.2.15 cells assessed as inhibition of HBsAg level incubated for 6 days with replacement of fresh media for every 72 hrs by real-time qPCR analysis; format: functional, organism-based
Hepatitis B virus [2] = experiment: Antiviral activity against HBV infected in human HepG2.2.15 cells assessed as inhibition of HBV DNA incubated for 6 days with replacement of fresh media for every 72 hrs by real-time qPCR analysis; format: functional, organism-based
[3] = Metabolic stability in human liver microsomes assessed as parent compound remaining at 1 uM measured upto 60 min in presence of NADPH by LC-MS/MS analysis; format: ADME, Microsome; conditions: read-out: Stability
[4] = Metabolic stability in human liver microsomes assessed as half life at 1 uM preincubated for 5 mins followed by NADPH addition and measured upto 60 min by LC-MS/MS analysis; format: ADME, Microsome; conditions: time < 65 min
[5] = Metabolic stability in mouse liver microsomes assessed as parent compound remaining at 1 uM measured upto 60 min in presence of NADPH by LC-MS/MS analysis; format: ADME, Microsome; conditions: read-out: Stability
[6] = Metabolic stability in mouse liver microsomes assessed as intrinsic clearance at 1 uM preincubated for 5 mins followed by NADPH addition and measured upto 60 min by LC-MS/MS analysis; format: ADME, Microsome; conditions: time < 65 min, read-out: CLH
[7] = Metabolic stability in mouse liver microsomes assessed as half life at 1 uM preincubated for 5 mins followed by NADPH addition and measured upto 60 min by LC-MS/MS analysis; format: ADME, Microsome; conditions: time < 65 min
[8] = Clearance in ICR mouse at 1 mg/kg, iv by UPLC-MS/MS analysis; format: ADME, organism-based; conditions: in vivo
[9] = Bioavailability in ICR mouse at 1 mg/kg, iv by UPLC-MS/MS analysis; format: ADME, organism-based; conditions: in vivo
[10] = Half life in ICR mouse at 10 mg/kg, IG by UPLC-MS/MS analysis; format: ADME, organism-based; conditions: in vivo, po
[11] = AUC (0 to infinity) in ICR mouse at 10 mg/kg, IG by UPLC-MS/MS analysis; format: ADME, organism-based; set-up: dose 10 mg/kg, route ig; conditions: in vivo, po
[12] = Half life in ICR mouse at 1 mg/kg, iv by UPLC-MS/MS analysis; format: ADME, organism-based; conditions: in vivo
[13] = AUC (0 to t) in ICR mouse at 1 mg/kg, iv by UPLC-MS/MS analysis; format: ADME, organism-based; set-up: dose 1 mg/kg, route iv; conditions: in vivo
[14] = AUC (0 to infinity) in ICR mouse at 1 mg/kg, iv by UPLC-MS/MS analysis; format: ADME, organism-based; set-up: dose 1 mg/kg, route iv; conditions: in vivo
[15] = Tmax in ICR mouse at 10 mg/kg, IG by UPLC-MS/MS analysis; format: ADME, organism-based; conditions: in vivo, po
[16] = Metabolic stability in human liver microsomes assessed as intrinsic clearance at 1 uM preincubated for 5 mins followed by NADPH addition and measured upto 60 min by LC-MS/MS analysis; format: ADME, Microsome; conditions: time < 65 min, read-out: CLH
[17] = Volume of distribution at steady state in ICR mouse at 1 mg/kg, iv by UPLC-MS/MS analysis; format: ADME, organism-based; conditions: in vivo, read-out: Vdss
[18] = Cmax in ICR mouse at 10 mg/kg, IG by UPLC-MS/MS analysis; format: ADME, organism-based; set-up: dose 10 mg/kg, route ig; conditions: in vivo, po
[19] = AUC (0 to t) in ICR mouse at 10 mg/kg, IG by UPLC-MS/MS analysis; format: ADME, organism-based; set-up: dose 10 mg/kg, route ig; conditions: in vivo, po
Hepatitis B virus [20] = experiment: In vivo antiviral activity against HBV infected in uPA/SCID mouse assessed as reduction in serum HBsAg level at 10 mg/kg, po administered twice daily for 21 days and measured upto 35 days; format: functional; conditions: time <= 35 day
Hepatitis B virus [21] = experiment: In vivo antiviral activity against HBV infected in uPA/SCID mouse assessed as reduction in serum HBsAg level at 10 mg/kg, po administered twice daily for 28 days; format: functional, organism-based; conditions: time 28.0 day
HepG2 2.2.15 = experiment: Cytotoxicity against human HepG2.2.15 cells by CCK-8 method; format: functional

Row | SMILES | EC50 (Hepatitis B virus [1]) [nM] | EC50 (Hepatitis B virus [2]) [nM] | remaining at 1 h, 1 µM [3] [%] | half-life at 1 µM [4] [h] | further results
1 | CN(C)c1cc(N2[C@H]3CC[C@@H]2c2cnc(-c4ncccn4)nc2C3)cc(F)n1 | 2450 | 89 | – | – | –
2 | CN(C)c1cc(F)nc(N2[C@H]3CC[C@@H]2c2cnc(-c4ncccn4)nc2C3)c1 | 41 | 34 | 86.2 | > 3.33 | remaining at 1 h, 1 µM [5]: 63.9%; CLint scaled at 1 µM [6]: 56.2 mL/min/kg; half-life at 1 µM [7]: 1.63 h
3 | COc1cc(F)nc(N2[C@@H]3CCC[C@H]2c2cnc(-c4ncccn4)nc2C3)c1 (single isomer, unassigned) | 26 | 15 | – | – | –
4 | COC1CCN(c2cc(F)nc(N3[C@H]4CC[C@@H]3c3cnc(-c5ncccn5)nc3C4)c2)C1 (some centres undefined) | 193 | 189 | – | – | –
5 | COC1CN(c2cc(F)nc(N3[C@H]4CC[C@@H]3c3cnc(-c5ncccn5)nc3C4)c2)C1 | 116 | 31 | 105 | > 3.33 | –
6 | COCCNc1cc(F)nc(N2[C@H]3CC[C@@H]2c2cnc(-c4ncccn4)nc2C3)c1 | 94 | 111 | – | – | –
7 | COCCOc1cc(F)nc(N2[C@H]3CC[C@@H]2c2cnc(-c4ncccn4)nc2C3)c1 | 73 | 44 | – | – | –
8 | CN(C)c1cc(F)nc(N2[C@@H]3CCC[C@H]2c2cnc(-c4ccccn4)nc2C3)c1 (single isomer, unassigned) | > 10000 | > 10000 | – | – | –
9 | CN(C)c1cc(F)nc(N2[C@@H]3CCC[C@H]2c2cnc(-c4ncccn4)nc2C3)c1 (single isomer, unassigned) | 14 | 2 | 69 | 1.93 | clearance [8]: 6.67 mL/min/kg; bioavailability [9]: 125%; half-life [10]: 1.95 h; AUC(0-inf) [11]: 31900 ng·h/mL; half-life [12]: 1.65 h; remaining at 1 h, 1 µM [5]: 52.4%; CLint scaled at 1 µM [6]: 81.4 mL/min/kg; AUC(0-t) [13]: 2480 ng·h/mL; AUC(0-inf) [14]: 2490 ng·h/mL; Tmax [15]: 0.5 h; CLint scaled at 1 µM [16]: 10.7 mL/min/kg; Vd [17]: 0.96 L/kg; Cmax [18]: 9900 ng/mL; AUC(0-t) [19]: 31000 ng·h/mL; Activity (Hepatitis B virus [20]): 0.74 log10/ml; half-life at 1 µM [7]: 1.12 h
10 | COC1CN(c2cc(F)nc(N3[C@@H]4CCC[C@H]3c3cnc(-c5ncccn5)nc3C4)c2)C1 (single isomer, unassigned) | 16 | 16 | 92.3 | > 3.33 | remaining at 1 h, 1 µM [5]: 80.4%; half-life at 1 µM [7]: > 3.33 h
11 | COCCN(C)c1cc(F)nc(N2C[C@@H]3CC[C@H]2c2cnc(-c4ncccn4)nc23)c1 | > 10000 | 1090 | – | – | –
12 | COCCCOc1cc2c(cc1OC)-c1cc(=O)c(C(=O)O)cn1[C@H](C(C)C)C2 | 6 | 1 | – | – | clearance [8]: 47.8 mL/min/kg; bioavailability [9]: 88.6%; half-life [10]: 1.12 h; AUC(0-inf) [11]: 3080 ng·h/mL; half-life [12]: 0.653 h; AUC(0-t) [13]: 346 ng·h/mL; AUC(0-inf) [14]: 349 ng·h/mL; Tmax [15]: 0.25 h; Vd [17]: 2.7 L/kg; Cmax [18]: 1100 ng/mL; AUC(0-t) [19]: 3060 ng·h/mL
13 | Fc1cc(N2CC(F)C2)cc(N2[C@@H]3CCC[C@H]2c2cnc(-c4ncccn4)nc2C3)n1 (single isomer, unassigned) | 12 | 7 | – | – | –
14 | Fc1cc(N2CC(F)C2)cc(N2[C@@H]3CCC[C@H]2c2cnc(-c4ccccn4)nc2C3)n1 (single isomer, unassigned) | > 10000 | > 10000 | – | – | –
15 | Fc1cc(NCC2CC2)cc(N2[C@H]3CC[C@@H]2c2cnc(-c4ncccn4)nc2C3)n1 | 106 | 105 | – | – | –
16 | CS(=O)(=O)N1CCN(c2cc(F)nc(N3[C@@H]4CCC[C@H]3c3cnc(-c5ncccn5)nc3C4)c2)CC1 (single isomer, unassigned) | 25 | 75 | 94 | > 3.33 | remaining at 1 h, 1 µM [5]: 85.7%; half-life at 1 µM [7]: > 3.33 h
17 | Fc1cc(N2CC(F)C2)cc(N2[C@H]3CC[C@@H]2c2cnc(-c4ncccn4)nc2C3)n1 | 44 | 18 | 99.7 | > 3.33 | clearance [8]: 4.88 mL/min/kg; bioavailability [9]: 80.2%; half-life [10]: 1.23 h; AUC(0-inf) [11]: 27400 ng·h/mL; half-life [12]: 1.16 h; Activity (Hepatitis B virus [21]): Active; AUC(0-t) [13]: 3410 ng·h/mL; AUC(0-inf) [14]: 3410 ng·h/mL; CC50 (HepG2 2.2.15): > 100000 nM; Tmax [15]: 0.25 h; Vd [17]: 0.49 L/kg; Cmax [18]: 9580 ng/mL; AUC(0-t) [19]: 27400 ng·h/mL; Activity (Hepatitis B virus [20]): 1.08 log10/ml
18 | COCCN(C)c1cc(F)nc(N2C[C@H]3CC[C@@H]2c2cnc(-c4ncccn4)nc23)c1 | 244 | 154 | – | – | –
19 | COc1cc(N2[C@H]3CC[C@@H]2c2cnc(-c4ncccn4)nc2C3)cc(F)c1F | 443 | 169 | 99.1 | > 3.33 | –
20 | Fc1cc(N2CCOCC2)cc(N2[C@H]3CC[C@@H]2c2cnc(-c4ncccn4)nc2C3)n1 | 54 | 39 | – | – | –
21 | COCCN(C)c1cc(F)nc(N2[C@H]3CC[C@@H]2c2cnc(-c4ncccn4)nc2C3)c1 | 31 | 21 | – | – | –
